In article PMC3777854 (Journal of clinical pharmacology, 2013):
Entries after “also recorded” stand apart in the source; their conditions may differ. Marks after values point to notes of the source that are not given here. Square brackets hold non-standard residues; d marks the D form. Peptide text beside a SMILES is read from it. * marks the point of attachment. Dolaproine = CO[C@@H]([C@@H]1CCCN1)[C@@H](C)C(=O)O; Dil = CC[C@H](C)[C@H](NC)[C@@H](CC(=O)O)OC; X1 = C[C@@H](N*)[C@@H](O)c1ccccc1; NMeV = CN[C@H](C(=O)O)C(C)C

Assays:
CYP3A [1] = assay: Effect of ketoconazole on brentuximab vedotin; format: in vivo, human; conditions: for MMAE Tmax: median (range); for MMAE Tmax / MMAE Cmax: n=16
[2] = on a mass basis; cited from earlier work
[3] = Excretion of MMAE in urine and feces; format: in vivo, human
CYP3A [4] = conditions: not of this paper; cited from earlier work
CYP3A [5] = assay: Effect of brentuximab vedotin on midazolam PK; conditions: brentuximab vedotin 1.8 mg/kg; midazolam as probe substrate
CYP3A [6] = assay: Effect of rifampin on brentuximab vedotin; format: in vivo, human; conditions: for MMAE Tmax: median (range)

Structure (SMILES): CC[C@H](C)[C@@H]([C@@H](CC(=O)N1CCC[C@H]1[C@H](OC)[C@@H](C)C(=O)N[C@H](C)[C@@H](O)c1ccccc1)OC)N(C)C(=O)[C@@H](NC(=O)[C@@H](NC)C(C)C)C(C)C [MMAE, monomethyl auristatin E] (H-[NMeV]V[Dil][Dolaproine]-X1)
- MMAE AUC0-∞ (CYP3A [1]; brentuximab vedotin 1.2 mg/kg IV alone, plasma, geometric mean (%CV), n=14): 26.65 (71) d·ng/mL
- MMAE t1/2 (CYP3A [1]; brentuximab vedotin 1.2 mg/kg alone, geometric mean (%CV), n=14): 3.06 (13) d
- MMAE Tmax (CYP3A [1]; brentuximab vedotin 1.2 mg/kg alone): 1.97 (0.97, 6.99) ^a d
- MMAE Cmax (CYP3A [1]; brentuximab vedotin 1.2 mg/kg alone, plasma, geometric mean (%CV)): 4.11 (71) ng/mL
- MMAE exposures higher when ketoconazole was coadministered (CYP3A [1]; brentuximab vedotin 1.2 mg/kg with ketoconazole vs alone): ~ 34%
- MMAE t1/2 (CYP3A [1]; brentuximab vedotin 1.2 mg/kg with ketoconazole, geometric mean (%CV), n=14): 3.47 (66) d
- MMAE Tmax (CYP3A [1]; brentuximab vedotin 1.2 mg/kg with ketoconazole): 2.45 (0.22, 4.06) ^a d
- MMAE Cmax (CYP3A [1]; brentuximab vedotin 1.2 mg/kg with ketoconazole, plasma, geometric mean (%CV)): 5.13 (114) ng/mL
- potential increase of MMAE AUC0-∞ by coadministration of ketoconazole (CYP3A [1]; in Cycle 1, exploratory analysis of the period effect): ~ 73%
- expected increase in MMAE levels with ketoconazole (CYP3A [1]; later cycles, relative to Cycle 1 MMAE levels without ketoconazole): ≤ 38%
- MMAE exposures lower than those of the ADC [2]: ~ 2000 fold
- number of MMAE metabolites detected in urine and feces ([3]; after concentrating the liquid-liquid extracts ten-fold, LC-MS/MS): 8
- concentration of MMAE in excreta relative to its metabolites ([3]; estimate, metabolites only detected upon 10-fold concentration): at least 10 fold
- MMAE recovered in urine and feces ([3]; of MMAE received during a brentuximab vedotin 1.8 mg/kg infusion, over a 1-week period, n=8): ~ 23.5%
- percentage of recovered MMAE excreted in feces, median ([3]; over 1 week after brentuximab vedotin 1.8 mg/kg, remainder in urine): 72%
- CYP3A induction (in vitro studies) (CYP3A [4]): does not induce CYP3A
- inhibition or induction of CYP3A in humans (conclusion) (CYP3A [5]): neither inhibitors nor inducers of CYP3A; also recorded: neither an inhibitor nor inducer of CYP3A
- MMAE AUC0-∞ (CYP3A [6]; brentuximab vedotin 1.8 mg/kg IV alone, plasma, geometric mean (%CV), n=14): 40.06 (53) d·ng/mL
- MMAE t1/2 (CYP3A [6]; brentuximab vedotin 1.8 mg/kg alone, geometric mean (%CV), n=14): 3.71 (19) d
- MMAE Tmax (CYP3A [6]; brentuximab vedotin 1.8 mg/kg alone, n=14): 3.00 (0.99, 5.01) ^a d
- MMAE Cmax (CYP3A [6]; brentuximab vedotin 1.8 mg/kg alone, plasma, geometric mean (%CV), n=14): 4.98 (67) ng/mL
- MMAE exposures lower when rifampin was coadministered (CYP3A [6]; brentuximab vedotin 1.8 mg/kg with rifampin vs alone): ~ 46%
- MMAE t1/2 (CYP3A [6]; brentuximab vedotin 1.8 mg/kg with rifampin, geometric mean (%CV), n=14): 3.66 (17) d
- MMAE Tmax (CYP3A [6]; brentuximab vedotin 1.8 mg/kg with rifampin, n=14): 1.49 (0.33, 4.02) ^a d
- MMAE Cmax (CYP3A [6]; brentuximab vedotin 1.8 mg/kg with rifampin, plasma, geometric mean (%CV), n=14): 2.80 (36) ng/mL
